Reference: PubChem BioAssay (NCI)
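Method: 48-hour compound exposure of cells in 96-well plates, five concentrations, linear interpolation of endpoints. TGI: total growth inhibition.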

How the values were obtained:
Experiment in all cases: NCI-60 cell line screen, 48 h
BT-549 breast = system: BT-549 breast
UACC-257 melanoma = system: UACC-257 melanoma
SN12C renal = system: SN12C renal
IGROV1 ovarian = system: IGROV1 ovarian
SF-268 CNS = system: SF-268 CNS
HS 578T breast = system: HS 578T breast
SNB-19 CNS = system: SNB-19 CNS
OVCAR-4 ovarian = system: OVCAR-4 ovarian
EKVX NSCLC = system: EKVX NSCLC
NCI-H23 lung = system: NCI-H23 lung

SMILES	TGI (BT-549 breast)	TGI (UACC-257 melanoma)	TGI (SN12C renal)	TGI (IGROV1 ovarian)	TGI (SF-268 CNS)	TGI (HS 578T breast)	TGI (SNB-19 CNS)	TGI (OVCAR-4 ovarian)	TGI (EKVX NSCLC)	TGI (NCI-H23 lung)
O=C(CNc1ccccc1C(=O)O)Nn1cnc2ccc(S(=O)(=O)Nc3ccccc3C(=O)O)cc2c1=O	> 100 µM	> 100 µM	> 100 µM	> 100 µM	> 100 µM	> 100 µM	> 100 µM	> 100 µM	> 100 µM	> 100 µM
C=C(NC(=O)C(=C)NC(=O)c1ccc2c(n1)-c1coc(n1)C(=C)NC(=O)C(=C)NC(=O)c1nc(oc1C)C(=C)NC(=O)C(C(C)(C)O)NC(=O)C(=C)NC(=O)c1coc(n1)/C(=C/C)NC(=O)[C@H]([C@@H](C)O)NC(=O)c1csc-2n1)C(N)=O (stereo not given in full)	> 87.5 µM	> 87.5 µM	> 87.5 µM	> 87.5 µM	> 87.5 µM	> 87.5 µM	> 87.5 µM	> 87.5 µM	> 87.5 µM	> 87.5 µM
CC(=O)NC1C(OCc2ccccc2)OC(CO)C(O)C1OC(C)C(=O)N[C@@H](C)C(=O)N[C@H](CCC(=O)NCCNCCNc1c2ccccc2nc2cccc([N+](=O)[O-])c12)C(N)=O (stereo not given in full)	0.221 µM	0.753 µM	0.99 µM	0.672 µM	2.14 µM	5.13 µM	1.86 µM	0.0817 µM	2.74 µM	0.0902 µM
CC(C)(C)C1CCC2c3c([nH]c4ccccc34)C3C(=O)N(c4ccc([N+](=O)[O-])cc4)C(=O)C3C2C1 (stereo not given)	36.9 µM	> 100 µM	20.8 µM	> 100 µM	34.8 µM	39.3 µM	67.5 µM	71.9 µM	> 100 µM	33.7 µM
COc1cc2c(cc1OC)C(=O)N(c1ccc(OCCN3CCCC3)cc1)C2	> 100 µM	> 100 µM	> 100 µM	> 100 µM	> 100 µM	> 100 µM	> 100 µM	> 100 µM	> 100 µM	> 100 µM
CC(C)(CO[C@H]1C[C@H]2CC[C@@]1(C)C2(C)C)[N+](=O)[O-]	45.5 µM	36.9 µM	> 100 µM	> 100 µM	> 100 µM	55.9 µM	37.2 µM	76 µM	46.2 µM	65.6 µM
COC1CC(C)(NC(=O)C(F)(F)F)C2OC(c3ccccc3)OCC2O1 (stereo not given)	> 100 µM	> 100 µM	> 100 µM	> 100 µM	> 100 µM	> 100 µM	> 100 µM	> 100 µM	> 100 µM	> 100 µM
CN1CCN(C(=O)c2cn(Cc3cncn3Cc3ccc4c(c3)OCO4)cc2-c2cccc3ccccc23)CC1	> 63 µM	42.7 µM	> 100 µM	> 100 µM	66.5 µM	> 100 µM	> 100 µM	> 100 µM	> 100 µM	> 89.7 µM
Cc1cn(CCCCCCOC(=O)NC(CCCNC(N)=O)C(=O)O)c(=O)[nH]c1=O (stereo not given)	> 100 µM	> 100 µM	> 100 µM	> 100 µM	> 100 µM	> 100 µM	> 100 µM	> 100 µM	> 100 µM	> 100 µM
CCN(CC)C(=S)SC(C(=O)Nc1nnc(-c2ccc(Cl)cc2)o1)c1ccccc1 (stereo not given)	66.7 µM	> 100 µM	38.2 µM	8.33 µM	67 µM	> 100 µM	> 100 µM	18.6 µM	29.4 µM	> 100 µM
C=C(C)C1CC(=O)C(C)=C(O)C1 (stereo not given)	> 100 µM	> 100 µM	> 100 µM	> 100 µM	> 100 µM	> 100 µM	> 100 µM	> 100 µM	> 100 µM	> 100 µM
N#Cc1nc(CCc2nc(C#N)c(N)o2)oc1N	> 10 µM	> 10 µM	> 10 µM	> 10 µM	> 10 µM	> 10 µM	> 10 µM	> 10 µM	> 10 µM	> 10 µM
COc1cc(CCNC2=CC(=O)c3nc[nH]c3C2=O)ccc1O	42 µM	34.8 µM	> 100 µM	52.8 µM	> 100 µM	72.8 µM	33.3 µM	29 µM	47.4 µM	48.6 µM
Cc1ccccc1NC(=O)O/N=C(\Cl)C(C)C	12.6 µM	28.7 µM	3.2 µM	27.6 µM	45.1 µM	58.5 µM	41.9 µM	23.2 µM	4.94 µM	32 µM
C=C1CCC[C@@H](C)C(O)[C@@H]2OC(=O)C(=C)[C@@H]2C[C@@H](OC(C)=O)[C@@]2(C)CC[C@@H]1O2 (stereo not given in full)	14.4 µM	15.2 µM	16 µM	15.4 µM	15.7 µM	29.4 µM	> 50 µM	36.7 µM	15.1 µM	15.2 µM
COC(=O)c1sc(=O)sc1SCc1cccc(CSc2sc(=O)sc2C(=O)OC)c1	> 100 µM	> 100 µM	> 100 µM	> 100 µM	86.1 µM	> 100 µM	61.6 µM	37.7 µM	> 100 µM	> 100 µM
